# Assay results from patent US6348445B1, “Biologically active peptides with reduced toxicity in animals and a method for preparing same” (priority 1992, dated 2002).
# Where two headings read alike, the source gives them in different places. Where a SMILES comes first, the peptide text is derived from it. Where no end group is shown, it is not given here. [ ]: non-standard residue; d: D form. The star is where a group is joined. Octanoyl = CCCCCCCC(=O)*; Orn = NCCC[C@H](N)C(=O)O
# Experiments:
# [1] = test system: clinical strains of P. aeruginosa isolated from cystic fibrosis patients; assay: MIC against clinical isolates of P. aeruginosa; format: cell-based, Pseudomonas aeruginosa; conditions: clinical isolate
# Method: (§1) The procedure for the anti-bacterial assay is based upon the guidelines of the National Committee for Clinical Laboratory Standards, Document M7-T2, Volume 8, No. 8, 1988, which document is entirely incorporated herein by reference.
# (§2) Stock solutions of peptides, with and without the appropriate substitutions, were prepared at a concentration of 512 μg/ml in sterile deionized distilled water and stored at −70° C.
# (§3) The stock peptide solution was diluted in serial dilutions (1:2) down the wells of a microtiter plate so that the final concentrations of peptides in the wells were 0.25, 0.50, 1, 2, 4, 8, 16, 32, 64, 128 and 256 μg/ml. 1-5×10^5 CFUs/ml of either S. aureus ATCC 25923, E. coli ATCC 25922, P. aeruginosa ATCC 27853, or C. albicans, were added to the wells in full strength Mueller Hinton broth (BBL 11443) from a mid-log culture. The inoculum was standardized spectrophotometrically at 600 nm and was verified by colony counts. The plates were incubated for 16-20 hours at 37° C., and the minimal inhibitory concentration (MIC) for each peptide was determined. Minimal inhibitory concentration is defined as the lowest concentration of peptide which produces a clear well in the microtiter plate. The minimal inhibitory concentration of each of the peptides with and/or without the appropriate substitutions is given in Table I below.
# (§4) The in vitro anti-microbial activities of the methane sulfonate derivatives were determined according to the methods described in Examples 1 and 2. The activities against ATCC strains of S. aureus, E. coli, P. aeruginosa, and C. albicans, and the hemolysis of red blood cells were compared to the parent compound (Table IV). The activities for Compound 843 (Oct-SEQ ID NO:143) methane sulfonate against clinical strains of P. aeruginosa isolated from cystic fibrosis patients were compared to the parent compound (Table V). The activity for Compound 469 (Oct-SEQ ID NO:27) methane sulfonate against P. gingivalis was compared to the parent compound (Table VI).
# [2] = test system: E. coli ATCC strain 25922; assay: Minimal Inhibitory Concentration, microtiter broth dilution; format: cell-based
# How it was run: (§5)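 Broth microdilution per NCCLS M7-T2: final peptide levels 0.25 to 256 μg/ml (twofold steps), inoculum 1-5×10^5 CFUs/ml in full-strength Mueller Hinton broth. MIC read as lowest concentration leaving the well clear after 16-20 hours at 37° C.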
# [3] = maximal tolerated dose, single intravenous administration of Compound 1324; format: in vivo, mice; conditions: mouse, in vivo; single intravenous bolus, CD-1 mice; read-out: MTD i.v. (maximum tolerated dose, non-lethal)
# Method: Mice received single intravenous administrations of Compound 1324, the methane sulfonate analogue of Compound 843, and were monitored for survival for at least 4 days. There were no deaths at a dose of less than or equal to 180 mg/kg.
# To determine the maximal tolerated dose (MTD) and estimate the lethal dose 50% (LD50) of Compound 1324 sodium when administered intravenously in a single-bolus in mice.
# Animals: On arrival and study initiation, three groups Thirty-seven male CD-1 mice (Charles River Lab)had average body weights of 39, 28 and 28 gm, respectively.
# Solution Prep: A 120 mg/ml of active Compound 1324 (active moiety corrected for) was made in saline. All concentrations from 5 mg/ml to 80 mg/ml were dilutions of the 120 mg/ml solution with saline. The highest concentration used in the intravenous administration was 20 mg/ml.
# Mice were randomly assigned to one of ten groups (4 mice per group, except the highest dose group which only had one mouse). Mice were administered intravenously 10 ml/kg of either 0 (saline), 5, 6, 7, 8, 14, 16, 18, or 20 mg/ml solution for doses of […]. One mouse received 14.1 ml/kg of a 20 mg/ml solution for a dose of 282 mg/kg. Mice were monitored for survival for at least four days post-administration.
# [4] = test system: P. aeruginosa strain ATCC 27853; format: cell-based
# How it was run: as §5
# [5] = test system: C. albicans ATCC 90028; format: cell-based; conditions: Table IV
# Method: as §1, §2, §3, §4
# [6] = test system: E. coli strain 21915-1; assay: survival of mice inoculated intraperitoneally with live E. coli; format: in vivo; conditions: i.v. at 1 and 5 hours post-inoculation, 10 mice
# Method: CD-1 male mice (average body weight, 22.8g) were inoculated with live E. coli strain 21915-1 (2.3×10^5 CFU mouse) by injection intraperitoneally. Oct-(SEQ ID NO: 143)—NH2 then was injected intravenously via the tail vein at 1 and 5 hours post-inoculation. Control mice were inoculated and treated with 0.9% saline. Each different treatment group had 10 mice per group. All control mice died.
# [7] = test system: C. albicans; format: cell-based; conditions: C. albicans; Table I
# How it was run: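 Broth microdilution: mid-log organisms at 1-5×10^5 CFU/ml in Mueller Hinton broth exposed to 2-fold peptide series (0.25–256 μg/ml final). After 16-20 h at 37° C, MIC read as the lowest concentration leaving the well clear.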
# [8] = test system: red blood cells; assay: hemolysis of red blood cells; format: cell-based
# Method: as §4
# [9] = test system: S.aureus strain ATCC 25923; assay: Minimal Inhibitory Concentration, microtiter broth dilution; format: cell-based; conditions: Mueller Hinton broth, 16-20 hours at 37° C.
# Text: Table I, which follows, indicates the Minimal Inhibitory Concentration (MIC) in […] of various peptides against S.aureus strain ATCC 25923(S), P. aeruginosa strain ATCC 27853(P), E. coli ATCC strain 25922(E), and C. 4albicans (CA). […] The peptides are unsubstituted at the N-terminal; substituted with an acetyl group at the N-terminal, as indicated by Ac-; substituted with an octanoyl group at the N-terminal, as indicated by Oct-; substituted with spinogosine, as indicated by Sph-; substituted with a succinyl group, as indicated by Suc-; substituted with a hexanoyl group, as indicated by Hex-; substituted with a heptanoyl group, as indicated by Hep-; substituted with a valeryl group, as indicated by Val-; substituted with a myristryl group, as indicated by Myr-; or substituted with an ibuprofyl group, as indicated by Ibu-;
# as §1, §2, §3
# [10] = test system: lipopolysaccharide from E. coli serotype 0111:B4; assay: survival of mice after lipopolysaccharide and galactosamine; format: in vivo
# Method: Oct-(SEQ ID NO: 143)—NH2 was injected intravenously into male C57BL/6J mice (average body weight 20.1 g) approximately two minutes prior to intraperitoneal injection of a solution of lipopolysaccharide (either 0.1 μg or 0.5 μg/mouse) from E. coli serotype 0111:B4 and galactosamine (8 mg/mouse). […] When these doses were administered prior to the administration of 0.1 μg lipopolysaccharide/mouse, the results were 40%, 90%, 100%, 100%, and 100% survival at five days post-lipopolysaccharide administration, respectively.
# [11] = test system: S. aureus ATCC 29213; format: cell-based
# [12] = test system: K-562 human chronic myelogenous leukemia cells; format: cell-based; conditions: 24 h
# Method: (§6) Human lung carcinoma cells, A-549 (ATCC), and human breast carcinoma cells, MDA-435 (from Sandoz), were grown in Ham's F12K medium (GIBCO-BRL) supplemented with […] fetal bovine serum. Human chronic myelogenous leukemia cells, K-562 (ATCC), were maintained in RPMI 1640 medium (GIBCO-BRL) supplemented with 10% fetal bovine serum. Human melanoma cell line, WM 1617 (from the Wistar Institute), was maintained in 2% Tumor media.
# (§7) Cytotoxicity assays were performed on the cell lines described above using CytoLite (Packard Instrument Company) following the manufacture's instruction. Briefly, 2×10^4cells/well were seeded into black, 96-well ViewPlates (Packard Instrument Company) in 100 μl/well growth medium. Ser. dilutions of Magainin peptides were then added into the cells and the plates incubated for 24 hours in a humidified 5% CO2 atmosphere at 37° C. Following incubation, 25 μl/well of CytoLite activator solution was added followed by 125 μl/well of amplifier solution. Luminescence was measured on TopCount Microplate Scintillation and Luminescence counter (Packard Instrument Company) using a 1 second count time in SPC (single photon counting) mode at 25 ° C. All assays were performed in triplicate. The peptides tested in this assay were MSI-78(SEQ ID NO: 154 —NH2), MSI-1858(SEQ ID NO: 154 —NH2 Methane Sulfonate), MSI-344(SEQ ID NO: 154 —OH) and MSI-1857(SEQ ID NO: 154 —OH Methane Sulfonate). The results of these assays are shown in FIGS. 2-9 with the corresponding IC50 values in Table VIII. In all cases the activity of the methane sulfonated peptide was as good or better than the parent peptide as indicated by both the survival curves and the IC50 values.
# [13] = test system: A-549 human lung carcinoma cells; format: cell-based; conditions: 24 h
# Method: as §6, §7
# [14] = test system: MDA-435 human breast carcinoma cells; format: cell-based; conditions: 24 h
# Method: as §6, §7
# [15] = test system: WM 1617 human melanoma cells; format: cell-based; conditions: 24 h
# Method: as §6, §7
compound,measurement,setting,value
CCCCCCCC(=O)N[C@@H](CCCN)C(=O)N[C@@H](CCCN)C(=O)N[C@@H](CC(C)C)C(=O)N[C@@H](CC(C)C)C(=O)N[C@@H](CCCN)C(=O)N[C@@H](CCCN)C(=O)N[C@@H](CC(C)C)C(=O)N[C@@H](CCCN)C(=O)N[C@@H](CCCN)C(=O)N[C@@H](CC(C)C)C(N)=O [Oct-(SEQ ID NO: 143)-NH2] (Octanoyl-[Orn][Orn]LL[Orn][Orn]L[Orn][Orn]L-NH2),MIC Pseudomonas aeruginosa LS-31,[1],16 µg/mL
same,MIC Pseudomonas aeruginosa LS-40,[1],4 µg/mL
same,MIC Pseudomonas aeruginosa LS-43,[1],2 µg/mL
same,Minimal Inhibitory Concentration E,"[2]; E. coli ATCC strain 25922, Table I",16 µg/mL
same,MIC E. coli ATCC 25922,[2]; Table IV,4 µg/mL
same,MTD,[3],20 mg/kg
same,Minimal Inhibitory Concentration P,"[4]; P. aeruginosa strain ATCC 27853, Table I",2 µg/mL
same,MIC P. aeruginosa ATCC 27853,[4]; Table IV,2 µg/mL
same,MIC Pseudomonas aeruginosa ATCC 27853,[4]; Table V,4 µg/mL
same,MIC C. albicans ATCC 90028,[5],64 µg/mL
same,survival at six days post-inoculation,[6]; 1 mg/kg in toto,20%
same,survival at six days post-inoculation,[6]; 5 mg/kg in toto,40%
same,survival at six days post-inoculation,[6]; 10 mg/kg in toto,90%
same,survival at six days post-inoculation,[6]; 20 mg/kg in toto,90%
same,Minimal Inhibitory Concentration CA,[7],16 µg/mL
same,% Hemolysis (500 μg/ml),[8],25%
same,Minimal Inhibitory Concentration S,[9],16 µg/mL
same,survival at five days post-lipopolysaccharide administration,"[10]; 5 mg/kg i.v. (by order of the list), 0.1 μg lipopolysaccharide/mouse",90%
same,survival at five days post-lipopolysaccharide administration,"[10]; 5 mg/kg i.v., 0.5 μg lipopolysaccharide/mouse",0%
same,survival at five days post-lipopolysaccharide administration,"[10]; 7.5 mg/kg i.v. (by order of the list), 0.1 μg lipopolysaccharide/mouse",100%
same,survival at five days post-lipopolysaccharide administration,"[10]; 7.5 mg/kg i.v., 0.5 μg lipopolysaccharide/mouse",30%
same,survival at five days post-lipopolysaccharide administration,"[10]; 10 mg/kg i.v. (by order of the list), 0.1 μg lipopolysaccharide/mouse",100%
same,survival at five days post-lipopolysaccharide administration,"[10]; 10 mg/kg i.v., 0.5 μg lipopolysaccharide/mouse",0%
same,survival at five days post-lipopolysaccharide administration,"[10]; 12.5 mg/kg i.v. (by order of the list), 0.1 μg lipopolysaccharide/mouse",100%
same,survival at five days post-lipopolysaccharide administration,"[10]; 12.5 mg/kg i.v., 0.5 μg lipopolysaccharide/mouse",50%
same,survival at five days post-lipopolysaccharide administration,"[10]; 15 mg/kg i.v., 0.5 μg lipopolysaccharide/mouse",60%
same,MIC S. aureus ATCC 29213,[11]; Table IV,16 µg/mL
GIGKFLKKAKKFGKAFVKILKK [MSI-78],MIC E. coli ATCC 25922,[2]; ATCC strain 25922,32 µg/mL
same,IC50,[12],9 µM
same,IC50,[13],3 µM
same,IC50,[14],4 µM
same,IC50,[15],3 µM
same,MIC P. aeruginosa ATCC 27853,[4]; ATCC 27853,16 to 32 µg/mL
same,MIC S. aureus ATCC 29213,[11]; ATCC 29213,16 µg/mL
